# From patent US9617258B2, “Pyrrolo[2,3-d]pyrimidinyl, pyrrolo[2,3-b]pyrazinyl and pyrrolo[2,3-d]pyridinyl acrylamides” (Pfizer Inc., priority 2013, dated 2017)
# Assay: Stability of JAK3 covalent inhibitors in human whole blood;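 further: parent compound remaining over incubation time quantified by LC-MS/MS as peak area ratio against an internal standard, using pooled K2-EDTA blood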
# Format: in vitro ADME
# Settings: both sexes, whole blood, 37° C., read-out: Human blood stability t1/2
# From the text: Stability of JAK3 Covalent Inhibitors in Rat and Human Whole Blood
# Rat blood was collected from 3 male Sprague-Dawley rats (200-250 g, Charles River Laboratories) and pooled for each study. Human blood was collected from one male and one female healthy subjects at the Occupational Health & Wellness Center at Pfizer, Groton, CT and pooled for each study. Both rat and human blood was collected freshly into K2-EDTA tubes and kept on ice. An aliquot of the blood was transferred to microtubes and pre-warmed for 10 min at 37° C. using a heat block. […] An aliquot of the incubation mixture was removed at designated time points during the course of the incubation, mixed with an aliquot of acetonitrile containing an internal standard, vortexed and centrifuged. The resulting supernatants were removed and subjected to LC-MS/MS analyses to determine parent compound concentrations. Peak area ratios of the parent compound vs the internal standard were used to determine the % of parent compound remaining vs incubation time.
row,Structure (SMILES),half-life at 1 μM
1,"C=CC(=O)N1CC(Nc2ncnc3[nH]ccc23)CCC1CO (stereo not drawn) [Example 52, 1-[2-(Hydroxymethyl)-5-(7H-pyrrolo[2,3-d]pyrimidin-4-ylamino)piperidin-1-yl]prop-2-en-1-one]",> 5.97 h
2,"C=CC(=O)N1CC[C@@H]2CCN(c3ncnc4[nH]ccc34)[C@@H]2C1 (single isomer, unassigned) [Example 8]",3.2 h
3,"C=CC(=O)N1C[C@@H](C#N)C[C@@H](Nc2ncnc3[nH]ccc23)C1 [Example 58, (3S,5R)-5-((7H-pyrrolo[2,3-d]pyrimidin-4-yl)amino)-1-acryloylpiperidine-3-carbonitrile]",0.583 h
4,"C=CC(=O)N1CCC[C@@H](Nc2nc(Nc3cccnc3)nc3[nH]ccc23)C1 [Example 63, 1-[(3R)-3-{[2-(Pyridin-3-ylamino)-7H-pyrrolo[2,3-d]pyrimidin-4-yl]amino}piperidin-1-yl]prop-2-en-1-one]",> 6 h
5,"C=CC(=O)N1[C@@H]2CC[C@H]1CN(c1cnc3[nH]cc(C(=O)NC(C)C)c3n1)C2 [Example 301, 2-[(1R,5S)-8-acryloyl-3,8-diazabicyclo[3.2.1]oct-3-yl]-N-(propan-2-yl)-5H-pyrrolo[2,3-b]pyrazine-7-carboxamide]",1.4 h
6,"CN(C)C/C=C/C(=O)N1CC[C@@H]2CCN(c3ncnc4[nH]ccc34)[C@@H]2C1 [Example 82, (2E)-4-(dimethylamino)-1-[(3aS,7aS)-1-(7H-pyrrolo[2,3-d]pyrimidin-4-yl)octahydro-6H-pyrrolo[2,3-c]pyridin-6-yl]but-2-en-1-one]",> 6 h
7,"C=CC(=O)N1C[C@@H](F)C[C@@H](Nc2ncnc3[nH]ccc23)C1 [Example 15, 1-((3R,5S)-3-((7H-Pyrrolo[2,3-d]pyrimidin-4-yl)amino)-5-fluoropiperidin-1-yl)prop-2-en-1-one]",3.87 h
8,"C=CC(=O)N1C[C@H](Nc2ncnc3[nH]cc(C#N)c23)CC[C@@H]1C [Example 163, 4-{[(3R,6S)-1-Acryloyl-6-methylpiperidin-3-yl]amino}-7H-pyrrolo[2,3-d]pyrimidine-5-carbonitrile]",4.83 h
9,"C=CC(=O)N1CC[C@]2(C)CCN(c3ncnc4[nH]ccc34)[C@@H]2C1 [Example 59, 1-((3aS,7aS)-3a-Methyl-1-(7H-pyrrolo[2,3-d]pyrimidin-4-yl)hexahydro-1H-pyrrolo[2,3-c]pyridin-6(2H)-yl)prop-2-en-1-one]",3.07 h
10,"C=CC(=O)N1C[C@H](Nc2ccnc3[nH]cc(C#N)c23)CC[C@@H]1C [Example 165, 4-{[(3R,6S)-1-Acryloyl-6-methylpiperidin-3-yl]amino}-1H-pyrrolo[2,3-b]pyridine-3-carbonitrile]",> 5.82 h
11,"C=CC(=O)N1C[C@H](Nc2ncnc3[nH]ccc23)C[C@H](OC)C1 [Example 19, 1-((3R,5S)-3-((7H-Pyrrolo[2,3-d]pyrimidin-4-yl)amino)-5-methoxypiperidin-1-yl)prop-2-en-1-one]",3.51 h
12,"C=CC(=O)N1CC[C@@H]2CCN(c3nc(N)nc4[nH]ccc34)[C@@H]2C1 [Example 73, 1-[(3aS,7aS)-1-(2-Amino-7H-pyrrolo[2,3-d]pyrimidin-4-yl)octahydro-6H-pyrrolo[2,3-c]pyridin-6-yl]prop-2-en-1-one]",3.25 h

# More lines, now with the values ahead:
row,half-life at 1 μM,Structure (SMILES)
1,4.57 h,"C=CC(=O)N1CCC[C@@H](Nc2ncnc3[nH]cc(C)c23)C1 [Example 43, 1-{(3R)-3-[(5-methyl-7H-pyrrolo[2,3-d]pyrimidin-4-yl)amino]piperidin-1-yl}prop-2-en-1-one]"
2,> 6 h,"C=CC(=O)N[C@H]1C[C@@H](Nc2cnc3[nH]cc(C(=O)NC(C)C)c3n2)C1 [Example 184, 2-{[cis-3-(acryloylamino)cyclobutyl]amino}-N-(propan-2-yl)-5H-pyrrolo[2,3-b]pyrazine-7-carboxamide]"
3,> 6 h,"C=CC(=O)N1CCC(Nc2cnc3[nH]cc(C(=O)N[C@H](C)CC)c3n2)CC1 [Example 289, 2-[(1-acryloylpiperidin-4-yl)amino]-N-[(2R)-butan-2-yl]-5H-pyrrolo[2,3-b]pyrazine-7-carboxamide]"
4,4.93 h,"C=CC(=O)N1CCC(Nc2cnc3[nH]cc(C(=O)NC4CCCC4(F)F)c3n2)CC1 (stereo not drawn) [Example 234, 2-[(1-acryloylpiperidin-4-yl)amino]-N-(2,2-difluorocyclopentyl)-5H-pyrrolo[2,3-b]pyrazine-7-carboxamide]"
5,3.87 h,"C=CC(=O)N1CCC(Nc2cnc3[nH]cc(C(=O)NCC4CCCC4)c3n2)CC1 [Example 270, 2-[(1-acryloylpiperidin-4-yl)amino]-N-(cyclopentylmethyl)-5H-pyrrolo[2,3-b]pyrazine-7-carboxamide]"
6,5.75 h,"C=CC(=O)N1CCC(Nc2cnc3[nH]cc(C(=O)N[C@@H](C)CC)c3n2)CC1 [Example 285, 2-[(1-acryloylpiperidin-4-yl)amino]-N-[(2S)-butan-2-yl]-5H-pyrrolo[2,3-b]pyrazine-7-carboxamide]"
7,> 6 h,"C=CC(=O)N1CCC(Nc2cnc3[nH]cc(C(=O)N[C@@H](C)COC)c3n2)CC1 [Example 277, 2-[(1-acryloylpiperidin-4-yl)amino]-N-[(2S)-1-methoxypropan-2-yl]-5H-pyrrolo[2,3-b]pyrazine-7-carboxamide]"
8,> 6 h,"C=CC(=O)N1CCC[C@@H](Nc2ncnc3[nH]cc(-c4ccc(C)nc4)c23)C1 [Example 66, (R)-1-(3-((5-(6-methylpyridin-3-yl)-7H-pyrrolo[2,3-d]pyrimidin-4-yl)amino)piperidin-1-yl)prop-2-en-1-one]"
9,> 6 h,"C=CC(=O)N1CCC(Nc2cnc3[nH]cc(C(=O)NCCC(F)(F)F)c3n2)CC1 [Example 246, 2-[(1-acryloylpiperidin-4-yl)amino]-N-(3,3,3-trifluoropropyl)-5H-pyrrolo[2,3-b]pyrazine-7-carboxamide]"
10,1.35 h,"C=CC(=O)N1CC(Nc2cnc3[nH]ccc3n2)C1 [Example 337, 1-(3-((5H-Pyrrolo[2,3-b]pyrazin-2-yl)amino)azetidin-1-yl)prop-2-en-1-one]"
11,> 6 h,"C=CC(=O)N1CCC(Nc2cnc3[nH]cc(C(=O)NCCC#N)c3n2)CC1 [Example 261, 2-[(1-acryloylpiperidin-4-yl)amino]-N-(2-cyanoethyl)-5H-pyrrolo[2,3-b]pyrazine-7-carboxamide]"
12,> 6 h,"C=CC(=O)N1CCC[C@@H](Nc2ncnc3[nH]cc(F)c23)C1 [Example 42, 1-{(3R)-3-[(5-fluoro-7H-pyrrolo[2,3-d]pyrimidin-4-yl)amino]piperidin-1-yl}prop-2-en-1-one]"
13,3.32 h,"C=CC(=O)N1CCN(c2cnc3[nH]cc(C(=O)NC(C)C)c3n2)C[C@@H]1CC [Example 299, 2-[(3S)-4-acryloyl-3-ethylpiperazin-1-yl]-N-(propan-2-yl)-5H-pyrrolo[2,3-b]pyrazine-7-carboxamide]"
14,> 6 h,"C=CC(=O)N1CC[C@H](Nc2cnc3[nH]cc(C(=O)NC(C)C)c3n2)C1 [Example 171, 2-{[(3S)-1-acryloylpyrrolidin-3-yl]amino}-N-(propan-2-yl)-5H -pyrrolo[2,3-b]pyrazine-7-carboxamide]"
15,> 6 h,"C=CC(=O)N1CC[C@@H](Nc2cnc3[nH]cc(C(=O)NC(C)C)c3n2)[C@@H](OC)C1 [Example 302, 2-{[(3S,4R)-1-acryloyl-3-methoxypiperidin-4-yl]amino}-N-(propan-2-yl)-5H-pyrrolo[2,3-b]pyrazine-7-carboxamide]"
